Assay results as given in patent US20080318949A1, “Pyrazolopyrimidinone Derivatives, Their Preparation And Their Use” (Topharman Shanghai Co., Ltd, priority 2005, published 2008).

How the values were obtained:
rat corpora cavernosa = assay: Pharmacodynamic test: intracavernous pressure on electric stimulation of the cavernous nerve; format: in vivo; settings: anesthetized male SD rats, 5 mg/kg orally, ratio of ICP to MBp
Experimental: The test was carried out based on the methods reported (International Journal of Impotence Research 2002, 14, 251 and The Journal of Urology 1992, 147, 1124). After fasted for 12 hours, 4 male SD rats were randomized into each group. After anesthetizing the rats with sodium pentobarbital (50 mg/kg, i.p.), the penile skin was incised and the prepuce was degloved to expose completely the corpora cavernosa (CC). A needle linked to an electrophysiology instrument was inserted into the CC on the right side in order to measure the intracavernous pressure (ICP). The right carotid artery was cannulated in a similar manner to the polyethylene tube in order to monitor the mean blood pressure (MBp) continuously. […] Electric stimulation was performed at 2 Hz, for 60 s with a pulse duration of 5 ms and 3V using a stimulator. The compounds were administrated orally (5 mg/kg). The change of the ICP and MBp were monitored continuously before and after the administration. The effect of the compounds on the erection induced by electric stimulation was evaluated by the ratio of ICP to MBp. The parameter (ICP/MBp) was used to estimate the influence of the compounds to the rat corpora cavernosa. […] The statistical significance of the differences between groups was calculated using Duncan's multiple comparison.

male KM mouse = assay: Acute oral toxicity test; format: in vivo; settings: single oral dose of 3 g/kg, 10 or 11 mice per group
Experimental: In this test male KM mouse weighting 18-22 g were used, and 10 or 11 mouse were assigned randomly to each group. […] The animals were fasted for 12 hours before the administration.

[1] = molecular target: T1, PDE5 from human platelets (Homo sapiens, UniProt O76074); assay: PDE5 inhibitory activity test (scintillation proximity assay); format: biochemical
T1 construct: from tissue; host or cells: human platelets
Description: (§1) The PDE5 and PDE3 were isolated form human platelets, while the PDE6 was isolated form bovine retinas. The enzyme inhibitory activity test conducted immediately after the enzymes had been isolated, using a scintillation proximity assay for the direct detection of AMP/GMP by the TRKQ7100 and TRKQ7090 kit. In summary, the effect of PDE inhibitors was investigated by assaying a fixed amount of enzyme in the presence of varying inhibitor concentrations and low substrate. The final assay volume was made up to 100 μl with 10 μl assay buffer (50 mM Tris/HCl PH 7.5, 8.3 mM MgCl2, 1.7 mM EGTA), and water. Reactions were initiated with enzyme, incubate for 30 minutes at 30° C. and terminated with 50 μl yttrium silicate SPA beads suspension containing zinc sulphate. Shook for 20 minutes and settled for 30 minutes in the dark, then counted on a BECKMAN LS6500 MULTI-PURPOSE SCINTILLATION COUNTER. The IC50 value for the compounds according the present invention was calculated according the counts.
According to the above-mentioned method, the inhibitory activities of some compounds of formula IA and IB according to the invention against PDE5 from human platelets were determined.

PDE6 from bovine retina = molecular target: T2, PDE6 from bovine retina (Bos taurus, UniProt P11541+P23439); assay: PDE6 inhibitory activity test (scintillation proximity assay); format: biochemical; settings: for IC50: PDE6 from bovine retina; for PDE6 IC50/PDE5 IC50: selectivity of PDE5 versus PDE6
T2 construct: the PDE6 was isolated form bovine retinas; from tissue; host or cells: bovine retina
T2 sequence (P11541 2-856 limits assumed): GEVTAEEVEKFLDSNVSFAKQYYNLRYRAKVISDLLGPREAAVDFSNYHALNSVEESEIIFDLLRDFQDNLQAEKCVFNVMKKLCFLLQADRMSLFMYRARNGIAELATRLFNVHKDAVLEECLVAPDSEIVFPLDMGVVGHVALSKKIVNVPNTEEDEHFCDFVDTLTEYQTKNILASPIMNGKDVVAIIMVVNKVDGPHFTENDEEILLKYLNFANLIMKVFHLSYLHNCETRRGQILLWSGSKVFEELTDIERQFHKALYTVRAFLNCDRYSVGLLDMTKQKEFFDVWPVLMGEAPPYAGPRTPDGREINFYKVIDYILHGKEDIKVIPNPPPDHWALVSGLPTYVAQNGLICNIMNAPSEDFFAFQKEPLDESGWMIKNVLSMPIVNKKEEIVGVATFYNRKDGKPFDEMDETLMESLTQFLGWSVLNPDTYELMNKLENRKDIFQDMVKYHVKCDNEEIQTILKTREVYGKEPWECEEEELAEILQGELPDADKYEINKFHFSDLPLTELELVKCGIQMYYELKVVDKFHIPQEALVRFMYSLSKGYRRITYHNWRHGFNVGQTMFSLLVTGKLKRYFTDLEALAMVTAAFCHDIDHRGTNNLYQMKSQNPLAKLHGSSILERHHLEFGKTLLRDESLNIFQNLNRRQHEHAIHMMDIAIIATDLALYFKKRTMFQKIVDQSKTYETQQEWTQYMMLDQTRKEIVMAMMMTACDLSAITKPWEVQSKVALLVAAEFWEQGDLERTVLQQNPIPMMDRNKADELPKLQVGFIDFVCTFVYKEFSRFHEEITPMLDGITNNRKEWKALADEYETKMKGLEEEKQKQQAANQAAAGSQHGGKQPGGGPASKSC
T2 sequence (P23439 2-850 limits assumed): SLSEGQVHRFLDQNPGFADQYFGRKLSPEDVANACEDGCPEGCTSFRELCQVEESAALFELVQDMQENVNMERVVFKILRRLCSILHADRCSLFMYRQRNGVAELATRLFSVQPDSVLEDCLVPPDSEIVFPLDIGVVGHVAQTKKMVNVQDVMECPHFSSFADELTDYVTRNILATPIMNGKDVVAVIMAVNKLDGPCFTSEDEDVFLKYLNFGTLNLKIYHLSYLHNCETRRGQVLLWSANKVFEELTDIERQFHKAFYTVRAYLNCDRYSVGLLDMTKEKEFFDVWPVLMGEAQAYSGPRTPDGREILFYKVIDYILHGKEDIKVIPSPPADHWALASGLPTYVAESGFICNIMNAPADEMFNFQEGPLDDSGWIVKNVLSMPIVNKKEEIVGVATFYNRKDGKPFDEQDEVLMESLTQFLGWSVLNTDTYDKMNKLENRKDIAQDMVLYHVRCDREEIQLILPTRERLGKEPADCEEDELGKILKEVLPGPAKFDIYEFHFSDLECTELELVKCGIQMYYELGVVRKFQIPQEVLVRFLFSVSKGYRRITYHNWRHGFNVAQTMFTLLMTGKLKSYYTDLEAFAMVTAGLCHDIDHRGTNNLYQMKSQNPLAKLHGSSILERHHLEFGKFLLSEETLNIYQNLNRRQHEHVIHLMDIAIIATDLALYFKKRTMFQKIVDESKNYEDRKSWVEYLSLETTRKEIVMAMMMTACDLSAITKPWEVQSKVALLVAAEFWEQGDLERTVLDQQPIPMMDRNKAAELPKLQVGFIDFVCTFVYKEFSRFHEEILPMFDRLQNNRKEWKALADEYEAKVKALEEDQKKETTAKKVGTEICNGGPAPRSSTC
Description: as §1

Row | Compound | ICP/BP (rat corpora cavernosa) | Number of death (male KM mouse) | mortality rate (male KM mouse) | IC50 ([1]; PDE5 from human platelets) | IC50 (PDE6 from bovine retina) | PDE6 IC50/PDE5 IC50 (PDE6 from bovine retina) | IC50 ([1]; PDE5 in the PDE6 selectivity table)
1 | CCCOc1ccc(S(=O)(=O)N(C)CCN(C)C)cc1-c1cc2c(CCC)nn(C)c2c(=O)[nH]1 [Example 75, 1-methyl-5-{2-propoxy-5-[[1-methyl-1-(2-dimethylamino)]amidosulfonyl]phenyl}-3-n-propyl-1,6-dihydro-7H-pyrazolo[4,3-d]pyrimidin-7-one] | 74.2 ± 7.8 |  |  |  |  |  | 
2 | 1-methyl-5-{2-propoxy-5-[[1-ethyl-1-(3-morpholin-1-yl)propyl]amidosulfonyl]phenyl}-3-n-propyl-1,6-dihydro-7H-pyrazolo[4,3-d]pyrimidin-7-one [Example 112] |  | 2 | 20% | 12.1 nM |  |  | 
3 | CCCc1nn(C)c2c(=O)[nH]c(-c3cc(S(=O)(=O)N4CCN(C)CC4)ccc3OCC)nc12 [sildenafil, Sildenafil, reference compound] | 80.1 ± 5.1 | 6 | 60% |  |  |  | 
4 | CCCc1nn(C)c2c(=O)[nH]c(-c3cc(S(=O)(=O)N(CCN4CCOCC4)Cc4ccccc4)ccc3OCC)nc12 [Example 25, 1-methyl-5-{2-ethoxy-5-[[1-benzyl-1-(2-morpholin-1-yl)ethyl]amidosulfonyl]phenyl}-3-n-propyl-1,6-dihydro-7H-pyrazolol[4,3-d]pyrimidin-7-one] |  |  |  | 0.335 nM | 93.6 nM | 279 | 
5 | CCCOc1ccc(S(=O)(=O)N(CCOC(C)=O)CCOC(C)=O)cc1-c1nc2c(CCC)nn(C)c2c(=O)[nH]1 [Example 1, 1-methyl-5-{2-propyloxy-5-[bis(2-acetoxyethyl)amidosulfonyl]phenyl}-3-n-propyl-1,6-dihydro-7H-pyrazolo[4,3-d]pyrimidin-7-one] |  |  |  | 0.08 nM | 16.8 nM | 210 | 
6 | CCCOc1ccc(S(=O)(=O)N(CCO)CCO)cc1-c1nc2c(CCC)nn(C)c2c(=O)[nH]1 [Example 2, 1-methyl-5-{2-propyloxy-5-[bis(2-hydroxyethyl)amidosulfonyl]phenyl}-3-n-propyl-1,6-dihydro-7H-pyrazolo[4,3-d]pyrimidin-7-one] |  |  |  | 0.133 nM | 56.5 nM | 425 | 
7 | CCCOc1ccc(S(=O)(=O)N(CCO)CCN2CCOCC2)cc1-c1cc2c(CCC)nn(C)c2c(=O)[nH]1 [Example 95, 1-methyl-5-{2-propoxy-5-[[1-(2-hydroxyethyl)-1-(2-morpholin-1-yl)ethyl]amidosulfonyl]phenyl}-3-n-propyl-1,6-dihydro-7H-pyrazolo[4,3-d]pyrimidin-7-one] | 57.2 ± 10.1 |  |  |  |  |  | 
8 | 1-methyl-5-{2-propoxy-5-[bis(2-nicotinoyloxyethyl)amidosulfonyl]phenyl}-3-n-propyl-1,6-dihydro-7H-pyrazolo[4,3-d]pyrimidin-7-one [Example 3] |  |  |  | 0.056 nM | 32.9 nM | 588 | 0.056 nM
9 | 1-methyl-5-{2-propoxy-5-[bis(3-methoxypropyl)amidosulfonyl]phenyl}-3-n-propyl-1,6-dihydro-7H-pyrazolo[4,3-d]pyrimidin-7-one [Example 103] |  | 0 | 0% | 5.61 nM |  |  | 
10 | CCCc1nn(C)c2c(=O)[nH]c(-c3cc(S(=O)(=O)N(CCOC(=O)c4cccnc4)CCOC(=O)c4cccnc4)ccc3OCC)nc12 [Example 5, 1-methyl-5-{2-ethoxy-5-[bis(2-nicotinoyloxyethyl)amidosulfonyl]phenyl}-3-n-propyl-1,6-dihydro-7H-pyrazolo[4,3-d]pyrimidin-7-one] |  |  |  | 1.08 nM | 131 nM | 131 | 
11 | CCCOc1ccc(S(=O)(=O)N(CCCO)CCCOC)cc1-c1nc2c(CCC)nn(C)c2c(=O)[nH]1 [Example 99, 1-methyl-5-{2-propoxy-5-[[1-(3-methoxypropyl)-1-(3-hydroxypropyl)]amidosulfonyl]phenyl}-3-n-propyl-1,6-dihydro-7H-pyrazolo[4,3-d]pyrimidin-7-one] | 56.2 ± 9.3 | 1 | 10% | 4.03 nM |  |  | 
12 | CCCOc1ccc(S(=O)(=O)N(C)CCN2CCCCC2)cc1-c1nc2c(CCC)nn(C)c2c(=O)[nH]1 [Example 78, 1-methyl-5-{2-propoxy-5-[[1-methyl-1-(2-piperidin-1-yl)ethyl]amidosulfonyl]phenyl}-3-n-propyl-1,6-dihydro-7H-pyrazolo[4,3-d]pyrimidin-7-one] | 71.6 ± 8.3 |  |  | 8.72 nM |  |  | 
13 | CCCc1nn(C)c2c(=O)[nH]c(-c3cc(S(=O)(=O)N(CCOC(C)=O)CCOC(C)=O)ccc3OCC)nc12 [Example 4, 1-methyl-5-{2-ethoxy-5-[bis(2-acetoxyethyl)amidosulfonyl]phenyl}-3-n-propyl-1,6-dihydro-7H-pyrazolo[4,3-d]pyrimidin-7-one] |  |  |  | 3.37 nM | 276 nM | 82.1 | 
14 | CCCOc1ccc(S(=O)(=O)N(CCN2CCOCC2)Cc2ccccc2)cc1-c1nc2c(CCC)nn(C)c2c(=O)[nH]1 [Example 24, 1-methyl-5-{2-propoxy-5-[[1-benzyl-1-(2-morpholin-1-yl)ethyl]amidosulfonyl]phenyl}-3-n-propyl-1,6-dihydro-7H-pyrazolo[4,3-d]pyrimidin-7-one] |  |  |  | 0.087 nM | 5.71 nM | 65.6 | 
